pEC50: −log10 of the molar value.

The text below walks through data of US20220274938A1, “5-[(1S)-1-(4-BROMOPHENOXY)ETHYL]-2H-TETRAZOLE DERIVATIVES AND RELATED COMPOUNDS AS CLC-1 ION CHANNEL INHIBITORS FOR TREATING NEUROMUSCULAR DISORDERS” (NMD PHARMA A/S, priority 2019, published 2022).

For the assay, the target named is T1, CIC-1 ion channel (Rattus norvegicus, UniProt P35524).
T1 construct: CIC-1 channels in native tissue of rat skeletal muscle fibres; from tissue; host or cells: whole soleus muscle of 12-14 week old Wistar rats
T1 sequence (P35524 1-994): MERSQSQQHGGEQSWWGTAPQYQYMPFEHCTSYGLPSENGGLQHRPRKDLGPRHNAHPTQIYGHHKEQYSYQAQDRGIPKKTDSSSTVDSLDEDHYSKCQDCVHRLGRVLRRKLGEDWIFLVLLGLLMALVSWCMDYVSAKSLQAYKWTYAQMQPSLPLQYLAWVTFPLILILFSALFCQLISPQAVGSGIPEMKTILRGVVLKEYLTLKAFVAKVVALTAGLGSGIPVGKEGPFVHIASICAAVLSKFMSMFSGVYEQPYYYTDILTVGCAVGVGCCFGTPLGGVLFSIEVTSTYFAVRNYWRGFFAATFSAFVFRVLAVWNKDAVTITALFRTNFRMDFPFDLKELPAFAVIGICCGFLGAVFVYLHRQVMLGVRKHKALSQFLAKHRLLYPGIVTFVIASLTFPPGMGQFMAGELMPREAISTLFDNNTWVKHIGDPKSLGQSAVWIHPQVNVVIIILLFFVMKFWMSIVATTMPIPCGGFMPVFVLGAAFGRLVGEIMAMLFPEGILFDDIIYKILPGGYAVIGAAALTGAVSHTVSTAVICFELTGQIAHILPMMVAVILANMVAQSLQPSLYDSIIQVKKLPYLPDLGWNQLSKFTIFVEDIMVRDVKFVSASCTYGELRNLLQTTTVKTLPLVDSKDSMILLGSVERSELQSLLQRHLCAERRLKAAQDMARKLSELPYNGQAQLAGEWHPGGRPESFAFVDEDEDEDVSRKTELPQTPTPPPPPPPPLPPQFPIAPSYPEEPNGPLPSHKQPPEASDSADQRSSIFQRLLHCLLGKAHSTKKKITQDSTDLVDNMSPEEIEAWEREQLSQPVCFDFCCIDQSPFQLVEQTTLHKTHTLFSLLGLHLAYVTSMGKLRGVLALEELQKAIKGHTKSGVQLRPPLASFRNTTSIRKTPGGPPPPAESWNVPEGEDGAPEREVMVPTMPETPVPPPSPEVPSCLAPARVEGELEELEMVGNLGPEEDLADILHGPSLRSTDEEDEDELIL
The assay is described as follows: Electrophysiological measurement (Gm, three micro-electrodes) of compound inhibition of CIC-1 in rat soleus muscle fibres. The format is cell-based. As to conditions: approx. 30° C., four increasing compound concentrations, read-out: EC50 (inhibition of CIC-1 ion channel, reduction of Gm). An excerpt: FIG. 1. […] Please note that the drawing illustrates only the impaled fibre although it is part of an intact muscle that contains many such fibres. All electrodes recorded the membrane potential of the fibre and the two peripheral electrodes were used to inject current (−30 nA, 50 ms). The electrodes were inserted with known inter-electrode distances (X1, X2 and X3). After insertion, current was passed first via the V1 electrode and then via the V3 electrode. The resulting deflections in the membrane voltage were measured by the other electrodes. The steady state deflections in membrane potential were measured and divided by the magnitude of the injected current (−30 nA) to obtain transfer resistances. These were next plotted against inter-electrode distances, and fitted to an exponential function (Panel B), from which Gm could be calculated using linear cable theory. The approach described in panel A and B, was repeated for several muscle fibres in the muscle during exposure at increasing concentrations of compound E-8, with approx. 10 fibres at each concentration. Average Gm at each concentration was plotted as a function of compound concentration in panel C, and fitted to a 4-parameter sigmoidal function from which the EC50 value for the compound was obtained (dashed line)
Apparent CIC-1 affinity was reported by the concentration of compound at which 50% of the compound's full inhibition of CIC-1 was observed (EC50).
CIC-1 Cl^− ion channels generate around 80% of the total membrane conductance (Gm) in resting skeletal muscle fibres of most animals including rat and human (Bretag, A H. Muscle chloride channels. Physiological Reviews, 1987, 67, 618-724). […] CIC-1 inhibition would in such recordings be reflected by a reduction of Gm.
Experimentally, Gm was measured in individual fibres of whole rat soleus muscles using a three micro-electrodes technique described in this example and in full detail elsewhere (Riisager et al., Determination of cable parameters in skeletal muscle fibres during repetitive firing of action potentials. Journal of Physiology, 2014, 592, 4417-4429). Briefly, intact rat soleus muscles were dissected out from 12-14 week old Wistar rats and placed in an experimental chamber that was perfused with a standard Krebs Ringer solution containing 122 mM NaCl, 25 mM NaHCO3, 2.8 mM KCl, 1.2 mM KH2PO4, 1.2 mM MgSO4, 1.3 mM CaCl2, 5.0 mM D-glucose. During experiments, the solution was kept at approx. 30° C. and continuously equilibrated with a mixture of 95% O2 and 5% CO2, pH˜7.4. The experimental chamber was placed in Nikon upright microscope that was used to visualize individual muscle fibres and the three electrodes (glass pipettes filled with 2 M potassium citrate). For Gm measurements, the electrodes were inserted into the same fibre with known inter-electrode distances of 0.35-0.5 mm (V1-V2, X1) and 1.1-1.5 mm (V1-V3, X3) (FIG. 1A). The membrane potential of the impaled muscle fibre was recorded by all electrodes. Two of the electrodes were furthermore used to inject 50 ms current pulses of −30 nA. […] The steady state voltage deflection at each distance was divided by the magnitude of current injected (−30 nA) and the resulting transfer resistances were plotted against inter-electrode distance and the data was fitted to a mono-exponential function from which Gm could be calculated using linear cable theory (FIG. 1B).
To establish a dose response relationship, Gm was first determined in 10 muscle fibres in the absence of compound and then at four increasing compound concentrations with Gm determinations in 5-10 fibres at each concentration. The average Gm values at each concentration were plotted against compound concentration and the data was fitted to sigmoidal function to obtain an EC50 value (FIG. 1C).

As usually defined, the pEC50 is the negative decadic logarithm of the EC50, by convention in mol/L. Regarding `C[C@H](Oc1ccc(Br)cc1F)c1nn[nH]n1` [Compound E-8, 5-[(1S)-1-(4-bromo-2-fluorophenoxy)ethyl]-2H-1,2,3,4-tetrazole], the pEC50 was 5.18.
Under `C[C@H](Oc1ccc(Cl)cc1)C(=O)NOC1CCC1` [Compound C-80, (2S)-2-(4-chlorophenoxy)-N-cyclobutoxypropanamide] stands 5.59.
